According to paper PMC9127117, “Towards discovery of inhibitors of the undecaprenyl-pyrophosphate phosphatase BacA by virtual high-throughput screening” (Computational and Structural Biotechnology Journal, 2022):
“Also recorded” adds a separate entry of the source.

Assays:
BWΔtolC strain = assay: Growth inhibition in 2YT liquid medium (off-target activity); format: cell-based, E. coli; details: for growth inhibition: TolC-depleted BWΔtolC; for Off-target activity: antibacterial activity against BWΔtolC
Protocol: (§1) Bacteria were grown in 2YT broth supplemented, when required, with ampicillin or kanamycin at concentrations of 100 and 50 µg/ml, respectively. The BWΔtolC strain was obtained from the Keio collection. The BWΔbacAΔtolC and BWbacA-singleΔtolC were generated by P1 transduction of the ΔtolC::Kan^R cassette from BWΔtolC strain to BWΔbacA and DMEG9 recipient strains, respectively. The strains S. aureus RN4220 and S. pneumoniae R6 were used to evaluate the antibacterial activity of certain compounds. S. aureus was grown on BHI (Brain Heart Infusion) broth and S. pneumoniae was grown on Colombia broth supplemented with 5% horse blood.
(§2) For compounds displaying inhibitory activity on BacA catalysis, their antibacterial activity was tested on different E. coli strains by monitoring bacterial growth in the presence of compounds (125, 250 and 500 µM). One colony was cultured in 10 ml of 2YT liquid medium and incubated at 37℃ for 6 h. The absorbance of the culture at 600 nm (A600) was measured to prepare a bacterial suspension in 2YT liquid medium at 15.10^6 CFU/ml (A600 = 1 corresponds to 3.10^8 CFU/ml). The bacterial suspension (200-µl) was then grown on 96-well plates in the presence or not of compounds (5-µl), which was added from a stock solution prepared in DMSO. Negative controls were then performed by growing the cells without inhibitors in 2YT medium and in 2YT medium supplemented with 2.5% of DMSO. The plates were incubated at 37℃ overnight with A600 measurements every 10 min using a Tecan F200 PRO microplate reader (iControl software).

S. pneumoniae R6 = assay: Double-disc diffusion test with bacitracin; format: cell-based
Protocol: To evaluate the antibacterial activity of the compounds per se or in combination with bacitracin, against S. aureus RN4220 and S. pneumoniae R6 strains, disc diffusion method was used according to the CLSI guidelines. Bacterial suspensions equivalent to 10^8 CFU/ml were prepared in 5 ml BHI broth. A BHI-agar plate (for S. aureus) or Colombia-agar plate supplemented with 5% Horse Blood (for S. pneumoniae) were then flooded with a bacterial suspension for 1 min to allow the bacteria to sediment before removing the excess of medium. The commercial discs loaded with 130 µg of bacitracin (Biorad) was positioned on top of the bacterial lawn at distances of 10 mm (center to center) from another sterile and blank disc, which was then loaded with 7 µL of a compound solution (50 µg). The plates were incubated at 37 °C for 24 h and the diameter of the growth inhibition zone was measured and a photo of the plates was acquired using a ChemiDoc™ MP System.
Figure S3. Test of antibacterial activity of BacA inhibitors against S. aureus RN4220 (A) and S. pneumonia R6 (B) strains. Bacitracin (130 µg)- and compound (50 µg)-loaded discs were positioned at 10 mm of distance on top of a bacterial lawn. The plates were incubated overnight at 37 °C. These images are representative of three independent tests. […]

[1] = system: BWbacA-singleΔtolC strain; assay: Growth inhibition / MIC in 2YT liquid medium; format: cell-based, E. coli; details: for MIC: BWbacA-singleΔtolC strain; for class of antibacterial activity (Figure S2): BWΔtolC and BWbacA-singleΔtolC strains, 250 and 500 µM; for growth inhibition: TolC/PAP2-depleted BWbacA-singleΔtolC, 500 µM compound
Protocol: as §1, §2

PgpB = molecular target: T1, PgpB (Escherichia coli, UniProt P0A924); assay: C55-PP phosphatase assay of PgpB; format: biochemical, E. coli; details: 100 µM compound; data not shown
T1 construct: made in house
Protocol: C43(DE3) cells carrying pTrcBac30 plasmid were used for the expression of N-terminally His6-tagged BacA (His6-BacA) protein from E. coli. Cells were grown in 2YT-ampicillin at 37 °C and when the OD600 reached 0.9, the temperature of the culture was decreased to 22 °C and protein expression was induced by addition of 1 mM IPTG. Incubation was continued overnight at 22 °C and bacteria were harvested in the cold and washed in a buffer containing 20 mM Tris-HCl, pH 7.4, 0.4 M NaCl, 10% glycerol and 10 mM β-mercaptoethanol (buffer A). The cells were disrupted by three successive passages through a French press and the suspension was centrifuged at 200,000× g, 4 °C for 45 min. The pellet of membranes was washed with buffer A. The membranes were resuspended in buffer A supplemented by 2% DDM detergent. […] Fractions containing the BacA protein were subjected to an additional gel-filtration purification step on Superdex 200 (HiLoadTM 16/600 SuperdexTM 200) equilibrated in 0.1% DDM-containing buffer A. 1-ml fractions were collected and analysed by SDS-PAGE. […]
The C55-PP phosphatase activity of BacA was assessed by measuring the percentage of transformation of [^14C]C55-PP into [^14C]C55-P upon incubation with BacA by TLC analysis. […] The radioactive spots were located and quantified with a radioactivity scanner. […] The C55-PP phosphatase activity of PgpB was measured as described for BacA.

[2] = system: E. coli BW25113 wild type strain; assay: Growth inhibition in 2YT liquid medium; format: cell-based; details: 500 µM compound
Protocol: as §2
(§3) Two compounds, 3 and 5, were assessed for antibacterial activity using the broth microdilution method against the E. coli BW25113 wild type strain. […] Considering the plurality of C55-PP phosphatases in E. coli, the inhibition of BacA may not induce growth inhibition as long as the PAP2 enzymes (PgpB, YbjG, and LpxT) are functional. Consequently, compounds 3 and 5 were tested against a BW25113 variant in which the PAP2 enzymes were depleted (DMEG9 strain, alias BWbacA-single). […]

[3] = system: BWbacA-singleΔtolC strain overexpressing an ectopic copy of the bacA gene on a plasmid; assay: Growth inhibition upon bacA overexpression; format: cell-based, E. coli; details: bacA overexpressed in trans; 500 µM compound
Protocol: as §2
(§4) To further assess the specificity of compounds 3 and 5 with respect to BacA, they were tested against the strain depleted of both TolC and PAP2 but overexpressing an ectopic copy of the bacA gene on a plasmid.

BacA = BacA (Escherichia coli, UniProt P60932); details: 50 µM C55-PP, 5 nM BacA
Protocol: C43(DE3) cells carrying pTrcBac30 plasmid were used for the expression of N-terminally His6-tagged BacA (His6-BacA) protein from E. coli. Cells were grown in 2YT-ampicillin at 37 °C and when the OD600 reached 0.9, the temperature of the culture was decreased to 22 °C and protein expression was induced by addition of 1 mM IPTG. Incubation was continued overnight at 22 °C and bacteria were harvested in the cold and washed in a buffer containing 20 mM Tris-HCl, pH 7.4, 0.4 M NaCl, 10% glycerol and 10 mM β-mercaptoethanol (buffer A). The cells were disrupted by three successive passages through a French press and the suspension was centrifuged at 200,000× g, 4 °C for 45 min. The pellet of membranes was washed with buffer A. The membranes were resuspended in buffer A supplemented by 2% DDM detergent. This mixture was incubated for 2 h at 4 °C under agitation before being centrifuged as described above. The supernatant containing solubilised membrane proteins was used for the purification of His6-BacA on Ni^2+-NTA-agarose. The supernatant was incubated overnight at 4 °C under agitation with 2 ml of Ni^2+-NTA-agarose polymer pre-equilibrated with buffer A supplemented with 10 mM imidazole and 0.2% DDM. The mixture was then transferred into a Poly-prep chromatography column (Biorad) and the polymer was washed with 50 ml of buffer A containing 0.2% DDM and successively 10 and 30 mM imidazole. The elution of BacA was then performed with buffer A containing 0.2% DDM and 400 mM imidazole. Fractions containing the BacA protein were subjected to an additional gel-filtration purification step on Superdex 200 (HiLoadTM 16/600 SuperdexTM 200) equilibrated in 0.1% DDM-containing buffer A. 1-ml fractions were collected and analysed by SDS-PAGE. Pure fractions were pooled and concentrated to 1 mg/ml (50000 MWCO concentrator, Vivaspin™ 20). […] PgpB was purified as previously described.
The C55-PP phosphatase activity of BacA was assessed by measuring the percentage of transformation of [^14C]C55-PP into [^14C]C55-P upon incubation with BacA by TLC analysis. The butanol from the [^14C]C55-PP solution was dried under vacuum so as to evaporate the organic solvent and to recover C55-PP as a lipidic film. […] The compounds (1 µL) were added to the reaction mixture at 100 µM final concentration (at the first instance) from a 2 mM stock solution prepared in DMSO. A blank experiment without compound, but with 1 µL DMSO, was performed in order to determine the 100 % of BacA activity to which all other experiments were compared. BacA (2 µL) was then added at a final concentration of 5 nM from a dilution solution prepared in the reaction buffer. The concentration of enzyme was fixed so that the consumption of substrate at the end of the incubation time in the control was less than 30%. The reaction mixture was incubated for 10 min at 37 °C and the catalysis was stopped by freezing in liquid nitrogen. The radiolabelled substrate (C55-PP) and product (C55-P) were separated by TLC on pre-coated plates of silica gel 60 (Merck) using propanol/ammonium hydroxide/water (6:3:1, v/v/v) as a mobile phase. The radioactive spots were located and quantified with a radioactivity scanner. […] Dose-response curves were plotted as BacA residual activity (RA) versus the logarithms of inhibitor concentration. […] Reported values are the average of at least three experiments. The C55-PP phosphatase activity of PgpB was measured as described for BacA.
The activity of BacA was then investigated by monitoring the initial velocity of [^14C]C55-PP dephosphorylation, as described in Material and methods section. […] The compounds were prepared as 2 mM DMSO stock solutions, resulting in a 5 % final concentration of DMSO in the reaction mixture.

[4] = system: BWbacA-singleΔtolC strain carrying the empty vector (pTRCH30); assay: Growth inhibition, control strain carrying the empty vector; format: cell-based, E. coli; details: 500 µM compound
Protocol: as §2, §4

BWΔbacAΔtolC strain = assay: Growth inhibition in 2YT liquid medium; format: cell-based, E. coli; details: BacA and TolC depleted; 500 µM compound
Protocol: as §1
For compounds displaying inhibitory activity on BacA catalysis, their antibacterial activity was tested on different E. coli strains by monitoring bacterial growth in the presence of compounds (125, 250 and 500 µM). One colony was cultured in 10 ml of 2YT liquid medium and incubated at 37℃ for 6 h. The absorbance of the culture at 600 nm (A600) was measured to prepare a bacterial suspension in 2YT liquid medium at 15.10^6 CFU/ml (A600 = 1 corresponds to 3.10^8 CFU/ml). […] The plates were incubated at 37℃ overnight with A600 measurements every 10 min using a Tecan F200 PRO microplate reader (iControl software). […]

[5] = system: DMEG9 strain, alias BWbacA-single; assay: Growth inhibition in 2YT liquid medium; format: cell-based, E. coli; details: PAP2-depleted DMEG9; 500 µM compound
Protocol: as §2, §3

T1 sequence (P0A924 whole entry): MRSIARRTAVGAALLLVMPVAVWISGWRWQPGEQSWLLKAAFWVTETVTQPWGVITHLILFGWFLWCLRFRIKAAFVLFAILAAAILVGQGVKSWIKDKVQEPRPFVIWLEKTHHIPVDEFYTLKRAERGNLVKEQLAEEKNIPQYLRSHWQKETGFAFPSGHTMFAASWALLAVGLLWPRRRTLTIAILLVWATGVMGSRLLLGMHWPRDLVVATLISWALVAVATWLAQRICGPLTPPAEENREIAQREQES
Chain of BacA (P60932 whole entry): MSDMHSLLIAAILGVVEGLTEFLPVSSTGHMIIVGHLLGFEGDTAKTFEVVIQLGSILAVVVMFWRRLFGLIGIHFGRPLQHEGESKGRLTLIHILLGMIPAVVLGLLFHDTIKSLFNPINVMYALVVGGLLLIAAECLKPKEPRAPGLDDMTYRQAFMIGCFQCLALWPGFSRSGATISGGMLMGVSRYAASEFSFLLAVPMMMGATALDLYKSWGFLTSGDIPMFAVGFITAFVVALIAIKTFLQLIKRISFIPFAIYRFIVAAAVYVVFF

SMILES | growth inhibition (BWΔtolC strain; 250 µM compound) | growth inhibition (BWΔtolC strain; 500 µM compound) | Off-target activity (BWΔtolC strain) | antibacterial activity per se (inhibition zone around compound-loaded disc) (S. pneumoniae R6; 50 µg compound disc) | inhibition zone of bacitracin in proximity of the compound (S. pneumoniae R6; 130 µg bacitracin disc, 50 µg compound disc at 10 mm) | MIC [1] | MIC ([1]; 125, 250 and 500 µM tested) | class of antibacterial activity (Figure S2) [1] | growth inhibition [1] | inhibition of PgpB (PgpB) | growth inhibition [2] | growth inhibition upon bacA overexpression [3] | IC50 (BacA; average of at least three experiments) | BacA RA (%) (BacA; residual activity in the presence of 100 µM compound, 10 min 37 °C) | MIC ([1]; class symbol ND) | growth inhibition [4] | growth inhibition (BacA-independent activity) (BWΔbacAΔtolC strain) | growth inhibition [5] | increase of the doubling time of cells (BWΔtolC strain; BWΔtolC, 500 µM compound)
O=C(O)c1csc(S(=O)(=O)Nc2ccc(N3CCCC3)c(F)c2)c1 [Compound 4] | no effect | moderate inhibition | Yes | no inhibition zone | 10 mm | 92 µg/mL | 250 µM | antibacterial activity on both strains | total growth inhibition | not inhibited | – | – | – | – | – | – | – | – | –
O=C(O)c1csc(S(=O)(=O)Nc2ccc3[nH]c(=O)sc3c2)c1 [Compound 5] | – | did not lead to any growth inhibition; also recorded: no growth inhibition | No | – | – | – | > 500 µM | without any antibacterial activity whatever the strain | no growth inhibition | – | No growth inhibition | did not display any antibacterial activity | 338 ± 35 µM | 76 ± 13% | ND (no growth inhibition detected up to 500 µM compound) | did not display any antibacterial activity | did not display any antibacterial activity | no growth inhibition | –
O=C(O)c1csc(S(=O)(=O)Nc2ccc3sccc3c2)c1 [Compound 3] | – | moderate inhibition; also recorded: significant growth inhibition | Yes | – | – | 169 µg/mL | 500 µM | antibacterial activity on both strains | complete growth inhibition; also recorded: total growth inhibition | not inhibited | No growth inhibition | partially alleviated growth inhibition; also recorded: susceptibility was decreased at the level observed with the strain depleted of TolC alone | – | – | – | total growth inhibition | moderate inhibition; also recorded: significant, although moderate, BacA-independent activity | no growth inhibition | 3 fold
